# Assay results published in patent US9168259B2 (GRÜNENTHAL GMBH, priority 2010, dated 2015).
# Molecular target: T1, KCNQ2/3 channels (Homo sapiens, UniProt O43525+O43526)
# T1 construct: expressed in transfected cells
# Experiment: Fluorescence assay using a voltage sensitive dye (fluorimetry)
# Format: cell-based
# Conditions: CHO-K1 cells expressing KCNQ2/3; for Emax: CHO-K1, plateau effect relative to saturated retigabine (50 μM) = 100%, negative values = antagonistic, read-out: Fluorimetry % efficacy (retigabine = 100%); for EC50: IC50 where % efficacy is negative, read-out: Fluorimetry EC50/IC50
# T1 sequence (O43526 whole entry): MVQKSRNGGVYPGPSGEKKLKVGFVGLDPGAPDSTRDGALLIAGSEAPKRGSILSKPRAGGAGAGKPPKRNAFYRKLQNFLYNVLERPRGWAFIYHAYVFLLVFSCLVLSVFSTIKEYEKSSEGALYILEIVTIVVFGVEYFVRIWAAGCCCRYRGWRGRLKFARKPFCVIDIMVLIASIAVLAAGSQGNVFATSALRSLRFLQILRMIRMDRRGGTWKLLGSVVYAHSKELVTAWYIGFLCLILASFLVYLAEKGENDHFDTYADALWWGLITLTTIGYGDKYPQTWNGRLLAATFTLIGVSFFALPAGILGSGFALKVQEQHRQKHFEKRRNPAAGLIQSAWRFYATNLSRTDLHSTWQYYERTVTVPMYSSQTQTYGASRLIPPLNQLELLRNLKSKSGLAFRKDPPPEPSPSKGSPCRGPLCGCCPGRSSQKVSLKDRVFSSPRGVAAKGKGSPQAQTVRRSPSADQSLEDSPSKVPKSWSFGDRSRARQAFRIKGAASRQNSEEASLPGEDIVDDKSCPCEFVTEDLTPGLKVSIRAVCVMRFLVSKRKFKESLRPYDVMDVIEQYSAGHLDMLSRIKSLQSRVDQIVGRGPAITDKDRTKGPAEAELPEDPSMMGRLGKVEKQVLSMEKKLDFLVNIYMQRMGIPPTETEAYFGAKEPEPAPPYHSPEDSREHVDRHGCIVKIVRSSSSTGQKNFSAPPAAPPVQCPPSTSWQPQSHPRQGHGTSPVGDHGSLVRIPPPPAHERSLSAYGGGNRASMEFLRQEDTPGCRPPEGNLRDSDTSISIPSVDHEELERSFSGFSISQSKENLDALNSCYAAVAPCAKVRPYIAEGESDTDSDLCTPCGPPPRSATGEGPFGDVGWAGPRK
# T1 sequence (O43525 whole entry): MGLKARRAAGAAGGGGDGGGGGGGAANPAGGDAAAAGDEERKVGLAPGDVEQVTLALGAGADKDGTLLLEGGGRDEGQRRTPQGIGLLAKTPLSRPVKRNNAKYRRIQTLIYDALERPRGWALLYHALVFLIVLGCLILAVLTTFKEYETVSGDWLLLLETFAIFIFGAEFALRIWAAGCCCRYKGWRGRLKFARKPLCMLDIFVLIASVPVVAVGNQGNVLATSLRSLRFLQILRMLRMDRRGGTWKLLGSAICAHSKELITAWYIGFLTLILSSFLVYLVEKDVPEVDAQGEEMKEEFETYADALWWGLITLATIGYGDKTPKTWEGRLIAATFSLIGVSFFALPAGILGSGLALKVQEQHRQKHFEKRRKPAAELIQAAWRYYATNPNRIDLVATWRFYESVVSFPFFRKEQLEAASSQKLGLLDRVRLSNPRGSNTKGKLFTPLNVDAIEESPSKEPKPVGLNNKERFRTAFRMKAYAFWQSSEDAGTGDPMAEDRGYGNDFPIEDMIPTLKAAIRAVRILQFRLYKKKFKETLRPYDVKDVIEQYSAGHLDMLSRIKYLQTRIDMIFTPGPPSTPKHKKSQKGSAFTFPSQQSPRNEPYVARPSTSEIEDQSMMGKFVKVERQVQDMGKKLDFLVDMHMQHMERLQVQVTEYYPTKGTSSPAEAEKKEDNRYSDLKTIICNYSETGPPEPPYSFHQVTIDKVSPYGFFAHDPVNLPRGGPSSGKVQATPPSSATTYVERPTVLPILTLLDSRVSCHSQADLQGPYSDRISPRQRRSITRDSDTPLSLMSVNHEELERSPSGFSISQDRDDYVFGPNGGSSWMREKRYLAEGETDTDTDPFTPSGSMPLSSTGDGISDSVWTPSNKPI
SMILES,Emax [%],EC50 [nM]
"CCSc1nc(N2CCOCC2)cc(C)c1C(=O)NCc1ccc(COC)cc1 [Example 146, 2-Ethylsulfanyl-N-[[4-(methoxymethyl)-phenyl]-methyl]-4-methyl-6-morpholin-4-yl-pyridine-3-carboxylic acid amide]",159,2490
"CCSc1nc(N2CCOCC2)cc(C)c1C(=O)NCc1ccc(COC)c(F)c1 [Example 147, 2-Ethylsulfanyl-N-[[3-fluoro-4-(methoxymethyl)-phenyl]-methyl]-4-methyl-6-morpholin-4-yl-pyridine-3-carboxylic acid amide]",153,530
"CCSc1nc(N2CCOCC2)cc(C)c1C(=O)NCc1ccc(N(C)C)cc1 [Example 148, N-[(4-Dimethylaminophenyl)-methyl]-2-ethylsulfanyl-4-methyl-6-morpholin-4-yl-pyridine-3-carboxylic acid amide]",105,3620
"CCSc1nc(N2CCOCC2)cc(C)c1C(=O)NCc1ccc(F)c(COC)c1 [Example 149, 2-Ethylsulfanyl-N-[[4-fluoro-3-(methoxymethyl)-phenyl]-methyl]-4-methyl-6-morpholin-4-yl-pyridine-3-carboxylic acid amide]",136,451
"CCSc1nc(N2CCN(C)C(=O)C2)cc(C)c1C(=O)NCc1cccc(F)c1 [Example 150, 2-Ethylsulfanyl-N-[(3-fluorophenyl)-methyl]-4-methyl-6-(4-methyl-3-oxo-piperazin-1-yl)-pyridine-3-carboxylic acid amide]",98,9650
"CCSc1nc(N2CC3(COC3)C2)cc(C)c1C(=O)NCc1cccc(F)c1 [Example 151, 2-Ethylsulfanyl-N-[(3-fluorophenyl)-methyl]-4-methyl-6-(6-oxa-2-azaspiro[3.3]heptan-2-yl)-pyridine-3-carboxylic acid amide]",92,12100
"CSc1nc(N2CCOCC2)cc(C)c1C(=O)NCCCC(C)(C)C [Example 152, N-(4,4-Dimethyl-pentyl)-4-methyl-2-methylsulfanyl-6-morpholin-4-yl-pyridine-3-carboxylic acid amide]",249,63
"CSc1nc(N2CCOCC2)cc(C)c1C(=O)NCCCC(F)(F)F [Example 153, 4-Methyl-2-methylsulfanyl-6-morpholin-4-yl-N-(4,4,4-trifluoro-butyl)-pyridine-3-carboxylic acid amide]",210,676
"CSc1nc(N2CCOCC2)cc(C)c1C(=O)NCc1ccc(F)cc1 [Example 154, N-[(4-Fluorophenyl)-methyl]-4-methyl-2-methylsulfanyl-6-morpholin-4-yl-pyridine-3-carboxylic acid amide]",154,394
"CSc1nc(N2CCOCC2)cc(C)c1C(=O)NCc1ccc(F)c(F)c1 [Example 155, N-[(3,4-Difluoro-phenyl)-methyl]-4-methyl-2-methylsulfanyl-6-morpholin-4-yl-pyridine-3-carboxylic acid amide]",158,152
"CSc1nc(N2CCOCC2)cc(C)c1C(=O)NCc1cc(F)cc(F)c1 [Example 156, N-[(3,5-Difluoro-phenyl)-methyl]-4-methyl-2-methylsulfanyl-6-morpholin-4-yl-pyridine-3-carboxylic acid amide]",167,157
"CSc1nc(N2CCOCC2)cc(C)c1C(=O)NCc1ccc(C(F)(F)F)cc1 [Example 157, 4-Methyl-2-methylsulfanyl-6-morpholin-4-yl-N-[[4-(trifluoromethyl)-phenyl]-methyl]-pyridine-3-carboxylic acid amide]",127,166
"CCSc1nc(N2CCN3C(=O)CCC3C2)cc(C)c1C(=O)NCc1cccc(F)c1 (centres unmarked) [Example 158, 2-Ethylsulfanyl-N-[(3-fluorophenyl)-methyl]-4-methyl-6-(6-oxo-2,3,4,7,8,8a-hexahydro-1H-pyrrolo[1,2-a]pyrazin-2-yl)-pyridine-3-carboxylic acid amide]",60,–
"CCSc1nc(N2CC3CC2CO3)cc(C)c1C(=O)NCc1cccc(F)c1 (centres unmarked) [Example 159, 2-Ethylsulfanyl-N-[(3-fluorophenyl)-methyl]-4-methyl-6-(3-oxa-6-azabicyclo[2.2.1]heptan-6-yl)-pyridine-3-carboxylic acid amide]",149,1260
"CCSc1nc(N2CCOCC2)cc(C)c1C(=O)NCCCC#N [Example 160, N-(3-Cyano-propyl)-2-ethylsulfanyl-4-methyl-6-morpholin-4-yl-pyridine-3-carboxylic acid amide]",70,–
"CCSc1nc(N2CCOCC2)cc(C)c1C(=O)NCc1ccc(C)cc1 [Example 161, 2-Ethylsulfanyl-4-methyl-6-morpholin-4-yl-N-(p-tolyl-methyl)-pyridine-3-carboxylic acid amide]",143,366
"CCSc1nc(N2CCOCC2)cc(C)c1C(=O)NCCCS(C)(=O)=O [Example 162, 2-Ethylsulfanyl-4-methyl-N-(3-methylsulfonyl-propyl)-6-morpholin-4-yl-pyridine-3-carboxylic acid amide]",21,–

SMILES,Emax [%],EC50 [nM]
"CCSc1nc(N2CCOCC2)cc(C)c1C(=O)NCCCCC#N [Example 163, N-(4-Cyano-butyl)-2-ethylsulfanyl-4-methyl-6-morpholin-4-yl-pyridine-3-carboxylic acid amide]",73,–
"CCSc1nc(N2CCOCC2)cc(C)c1C(=O)NCc1cccc(C)c1 [Example 164, 2-Ethylsulfanyl-4-methyl-6-morpholin-4-yl-N-(m-tolyl-methyl)-pyridine-3-carboxylic acid amide]",122,237
"COc1nc(N2CCOCC2)cc(C)c1C(=O)NCc1ccc(Cl)cc1 [Example 165, N-[(4-Chlorophenyl)-methyl]-2-methoxy-4-methyl-6-morpholin-4-yl-pyridine-3-carboxylic acid amide]",135,230
"CCOc1nc(N2CCOCC2)cc(C)c1C(=O)NCc1ccc(Cl)cc1 [Example 166, N-[(4-Chlorophenyl)-methyl]-2-ethoxy-4-methyl-6-morpholin-4-yl-pyridine-3-carboxylic acid amide]",134,117
"CCSc1nc(N2CCOC(CC)C2)cc(C)c1C(=O)NCc1cccc(F)c1 (centres unmarked) [Example 167, 6-(2-Ethyl-morpholin-4-yl)-2-ethylsulfanyl-N-[(3-fluorophenyl)-methyl]-4-methyl-pyridine-3-carboxylic acid amide]",137,113
"CSc1nc(N2CCOCC2)cc(C)c1C(=O)NCc1ccc(Cl)cc1 [Example 168, N-[(4-Chlorophenyl)-methyl]-4-methyl-2-methylsulfanyl-6-morpholin-4-yl-pyridine-3-carboxylic acid amide]",149,132
"Cc1cc(N2CCOC[C@H]2C)nc(C(C)C)c1C(=O)NCc1ccc(F)cc1 [Example 169, N-[(4-Fluorophenyl)-methyl]-2-isopropyl-4-methyl-6-[(3R)-3-methyl-morpholin-4-yl]-pyridine-3-carboxylic acid amide]",197,24
"CCSc1nc(N(C)c2ccccn2)cc(C)c1C(=O)NCc1cccc(F)c1 [Example 170, 2-Ethylsulfanyl-N-[(3-fluorophenyl)-methyl]-4-methyl-6-(methyl-pyridin-2-yl-amino)-pyridine-3-carboxylic acid amide]",84,1240
"CCSc1nc(N(C)c2cccnc2)cc(C)c1C(=O)NCc1cccc(F)c1 [Example 171, 2-Ethylsulfanyl-N-[(3-fluorophenyl)-methyl]-4-methyl-6-(methyl-pyridin-3-yl-amino)-pyridine-3-carboxylic acid amide]",62,1940
"Cc1cc(N2CCOC[C@H]2C)nc(N(C)C)c1C(=O)NCc1ccc(F)cc1 [Example 172, 2-Dimethylamino-N-[(4-fluorophenyl)-methyl]-4-methyl-6-[(3R)-3-methyl-morpholin-4-yl]-pyridine-3-carboxylic acid amide]",246,378
"CCN(C)c1nc(N2CCOC[C@H]2C)cc(C)c1C(=O)NCc1ccc(F)cc1 [Example 173, 2-(Ethyl-methyl-amino)-N-[(4-fluorophenyl)-methyl]-4-methyl-6-[(3R)-3-methyl-morpholin-4-yl]-pyridine-3-carboxylic acid amide]",259,201
"CCN(C)c1nc(N2CCOCC2)cc(C)c1C(=O)NCc1ccc(F)cc1 [Example 174, 2-(Ethyl-methyl-amino)-N-[(4-fluorophenyl)-methyl]-4-methyl-6-morpholin-4-yl-pyridine-3-carboxylic acid amide]",221,422
"CCSc1nc(N(C)CC2CCCOC2)cc(C)c1C(=O)NCc1cccc(F)c1 (centres unmarked) [Example 175, 2-Ethylsulfanyl-N-[(3-fluorophenyl)-methyl]-4-methyl-6-[methyl-(tetrahydro-pyran-3-yl-methyl)-amino]-pyridine-3-carboxylic acid amide]",114,870
"CSc1nc(N2CCOC[C@H]2C)cc(C)c1C(=O)NCc1ccc(F)cc1 [Example 176, N-[(4-Fluorophenyl)-methyl]-4-methyl-6-[(3R)-3-methyl-morpholin-4-yl]-2-methylsulfanyl-pyridine-3-carboxylic acid amide]",215,136
"CCSc1nc(N2CCOC[C@H]2C)cc(C)c1C(=O)NCc1ccc(F)cc1 [Example 177, 2-Ethylsulfanyl-N-[(4-fluorophenyl)-methyl]-4-methyl-6-[(3R)-3-methyl-morpholin-4-yl]-pyridine-3-carboxylic acid amide]",174,97
"CCSc1nc(N2CCOCC2CC)cc(C)c1C(=O)NCc1cccc(F)c1 (centres unmarked) [Example 178, 6-(3-Ethyl-morpholin-4-yl)-2-ethylsulfanyl-N-[(3-fluorophenyl)-methyl]-4-methyl-pyridine-3-carboxylic acid amide]",147,54
